In US20250059198A1, “BRM DEGRADING COMPOUNDS AND ASSOCIATED METHODS OF USE” (Arvinas Operations, Inc., priority 2021, published 2025):

Target: T1, BRM (Homo sapiens, UniProt P51531)
T1 construct: Western Blot Screen of BRM Degradation in SW1573 Cells; endogenous in cells; host or cells: SW1573 cells
Assay: BRM degradation (Dmax and DC50) in SW1573 cells, Western blot screen / In-Cell Western screen
Assay type: cell-based
Conditions: overnight (18-20 hours) treatment; for Dmax: read-out: Dmax (%)** (% degraded)
Summary of the method: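 Dmax and DC50 were derived from BRM levels normalised to an alpha-tubulin control, measured by chemiluminescent Western blotting of lysates or by PFA-fixed In-Cell Western on LI-COR Odyssey. SW1573 cells received compound overnight (18–20 h, 0.1% DMSO final).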

T1 sequence (P51531 whole entry): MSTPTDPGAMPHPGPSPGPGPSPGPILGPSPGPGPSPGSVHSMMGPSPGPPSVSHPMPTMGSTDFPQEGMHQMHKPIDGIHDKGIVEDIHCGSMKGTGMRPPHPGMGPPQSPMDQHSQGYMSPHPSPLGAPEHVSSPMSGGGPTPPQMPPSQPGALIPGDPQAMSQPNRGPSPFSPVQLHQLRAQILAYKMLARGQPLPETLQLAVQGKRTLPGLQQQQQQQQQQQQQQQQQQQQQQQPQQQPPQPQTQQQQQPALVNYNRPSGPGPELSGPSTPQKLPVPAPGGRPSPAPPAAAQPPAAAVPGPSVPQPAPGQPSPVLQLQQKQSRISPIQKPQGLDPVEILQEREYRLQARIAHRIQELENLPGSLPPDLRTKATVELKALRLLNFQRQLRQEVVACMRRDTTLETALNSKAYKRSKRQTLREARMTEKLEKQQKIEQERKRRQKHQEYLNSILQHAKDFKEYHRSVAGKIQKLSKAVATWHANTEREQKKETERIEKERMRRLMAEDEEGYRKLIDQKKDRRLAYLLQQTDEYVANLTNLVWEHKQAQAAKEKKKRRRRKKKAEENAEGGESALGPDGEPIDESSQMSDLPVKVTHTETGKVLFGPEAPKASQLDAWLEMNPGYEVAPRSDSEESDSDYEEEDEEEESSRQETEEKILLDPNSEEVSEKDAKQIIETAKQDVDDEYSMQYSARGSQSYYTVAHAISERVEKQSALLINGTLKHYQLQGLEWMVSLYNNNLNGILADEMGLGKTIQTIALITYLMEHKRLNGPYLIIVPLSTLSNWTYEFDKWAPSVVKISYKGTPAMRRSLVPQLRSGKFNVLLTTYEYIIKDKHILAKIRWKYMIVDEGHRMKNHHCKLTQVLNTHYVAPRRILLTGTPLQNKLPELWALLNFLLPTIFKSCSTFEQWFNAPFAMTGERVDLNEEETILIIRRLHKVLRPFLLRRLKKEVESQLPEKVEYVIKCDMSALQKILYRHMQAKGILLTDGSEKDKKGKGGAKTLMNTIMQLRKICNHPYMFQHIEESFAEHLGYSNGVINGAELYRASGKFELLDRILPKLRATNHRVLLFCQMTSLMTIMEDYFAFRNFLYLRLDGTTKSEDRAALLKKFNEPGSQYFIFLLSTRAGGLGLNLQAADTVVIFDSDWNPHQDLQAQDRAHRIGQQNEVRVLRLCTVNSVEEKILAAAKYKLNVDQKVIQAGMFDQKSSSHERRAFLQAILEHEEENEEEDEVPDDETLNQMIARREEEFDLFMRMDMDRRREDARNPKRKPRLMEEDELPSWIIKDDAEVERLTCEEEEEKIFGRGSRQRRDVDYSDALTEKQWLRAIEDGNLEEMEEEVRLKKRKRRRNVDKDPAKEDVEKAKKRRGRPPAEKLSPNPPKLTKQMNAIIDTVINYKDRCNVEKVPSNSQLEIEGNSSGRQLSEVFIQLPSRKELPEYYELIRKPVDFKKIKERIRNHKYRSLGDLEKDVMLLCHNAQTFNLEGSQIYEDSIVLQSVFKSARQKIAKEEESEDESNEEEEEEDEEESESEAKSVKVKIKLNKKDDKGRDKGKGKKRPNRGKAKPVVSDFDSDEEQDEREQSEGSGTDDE

Row | Compound | DC50 [nM] | Dmax [%]
1 | Cc1ncsc1-c1ccc([C@H](C)NC(=O)[C@@H]2C[C@@H](O)CN2C(=O)[C@H](c2cc(N3CCN(C(=O)N4CCC(O[C@H]5C[C@H](Oc6cc(N7C8CCC7CN(c7cc(-c9ccccc9O)nnc7N)C8)ccn6)C5)CC4)CC3)no2)C(C)C)cc1 [Compound 124, (2S,4R)-4-hydroxy-N-[(1S)-1-[4-(4-methyl-1,3-thiazol-5-yl)phenyl]ethyl]-1-[(2R)-3-methyl-2-[3-(4-{4-[(1r,3r)-3-[(4-{3-[3-amino-6-(2-hydroxyphenyl)pyridazin-4-yl]-3,8-diazabicyclo[3.2.1]octan-8-yl}pyridin-2-yl)oxy]cyclobutoxy]piperidine-1-carbonyl}piperazin-1-yl)-1,2-oxazol-5-yl]butanoyl]pyrrolidine-2-carboxamide] | ≥ 30 | 
2 | Cc1ncsc1-c1ccc([C@H](C)NC(=O)[C@@H]2C[C@@H](O)CN2C(=O)[C@@H](c2cc(N3CCC(CN4CCC(O[C@H]5C[C@H](N6CCN(CC7(O)CCN(c8cc(-c9ccccc9O)nnc8N)CC7)CC6)C5)CC4)CC3)no2)C(C)C)cc1 [Compound 57, (2S,4R)-4-hydroxy-N-[(1S)-1-[4-(4-methyl-1,3-thiazol-5-yl)phenyl]ethyl]-1-[(2R)-3-methyl-2-{3-[4-({4-[(1r,3r)-3-[4-({1-[3-amino-6-(2-hydroxyphenyl)pyridazin-4-yl]-4-hydroxypiperidin-4-yl}methyl)piperazin-1-yl]cyclobutoxy]piperidin-1-yl}methyl)piperidin-1-yl]-1,2-oxazol-5-yl}butanoyl]pyrrolidine-2-carboxamide] | < 2.5 | > 75
3 | Cc1ncsc1-c1ccc([C@H](C)NC(=O)[C@@H]2C[C@@H](O)CN2C(=O)[C@@H](c2cc(N3CCN(C(=O)N4CCC(O[C@H]5C[C@H](Oc6cc(N7C8CCC7CN(c7cc(-c9ccccc9O)nnc7N)C8)ccn6)C5)CC4)CC3)no2)C(C)C)cc1 [Compound 123, (2S,4R)-4-hydroxy-N-[(1S)-1-[4-(4-methyl-1,3-thiazol-5-yl)phenyl]ethyl]-1-[(2S)-3-methyl-2-[3-(4-{4-[(1r,3r)-3-[(4-{3-[3-amino-6-(2-hydroxyphenyl)pyridazin-4-yl]-3,8-diazabicyclo[3.2.1]octan-8-yl}pyridin-2-yl)oxy]cyclobutoxy]piperidine-1-carbonyl}piperazin-1-yl)-1,2-oxazol-5-yl]butanoyl]pyrrolidine-2-carboxamide] | < 2.5 | > 75
4 | Cc1ncsc1-c1ccc([C@H](C)NC(=O)C2C[C@@H](O)CN2C(=O)[C@@H](c2cc(N3CCC(CN4CC[C@@H](Oc5cc(N6C7CCC6CN(c6cc(-c8ccccc8O)nnc6N)C7)ccn5)C(F)(F)C4)CC3)no2)C(C)C)cc1 (stereo in doubt) [Compound 53, (2S,4R)-1-[(2R)-2-[3-(4-{[(4R)-4-[(4-{3-[3-amino-6-(2-hydroxyphenyl)pyridazin-4-yl]-3,8-diazabicyclo[3.2.1]octan-8-yl}pyridin-2-yl)oxy]-3,3-difluoropiperidin-1-yl]methyl}piperidin-1-yl)-1,2-oxazol-5-yl]-3-methylbutanoyl]-4-hydroxy-N-[(1S)-1-[4-(4-methyl-1,3-thiazol-5-yl)phenyl]ethyl]pyrrolidine-2-carboxamide] | 2.5 to 10 | > 75
5 | Cc1ncsc1-c1ccc([C@H](C)NC(=O)[C@@H]2C[C@@H](O)CN2C(=O)[C@@H](c2cc(N3CCC(CN4CCC(N[C@H]5C[C@H](Oc6cc(N7C8CCC7CN(c7cc(-c9ccccc9O)nnc7N)C8)ccn6)C5)CC4)CC3)no2)C(C)C)cc1 [Compound 10, (2S,4R)-4-hydroxy-N-[(1S)-1-[4-(4-methyl-1,3-thiazol-5-yl)phenyl]ethyl]-1-[(2R)-3-methyl-2-(3-{4-[(4-{[(1rs,3rs)-3-[(4-{3-[3-amino-6-(2-hydroxyphenyl)pyridazin-4-yl]-3,8-diazabicyclo[3.2.1]octan-8-yl}pyridin-2-yl)oxy]cyclobutyl]amino}piperidin-1-yl)methyl]piperidin-1-yl}-1,2-oxazol-5-yl)butanoyl]pyrrolidine-2-carboxamide] | < 2.5 | > 75
6 | CC(C)[C@@H](C(=O)N1C[C@H](O)C[C@H]1C(=O)N[C@@H](C)c1ccc(-c2ccnn2C)cc1)c1cc(N2CCC(CN3CCC(Oc4cc(/C=C(\F)c5cc(-c6ccccc6O)nnc5N)ccn4)CC3)CC2)no1 [Compound 52, (2S,4R)-1-[(2R)-2-{3-[4-({4-[(4-{2-[3-amino-6-(2-hydroxyphenyl)pyridazin-4-yl]-2-fluoroethenyl}pyridin-2-yl)oxy]piperidin-1-yl}methyl)piperidin-1-yl]-1,2-oxazol-5-yl}-3-methylbutanoyl]-4-hydroxy-N-[(1S)-1-[4-(1-methyl-1H-pyrazol-5-yl)phenyl]ethyl]pyrrolidine-2-carboxamide] | < 2.5 | > 75
7 | Cc1ncsc1-c1ccc([C@H](C)NC(=O)[C@@H]2C[C@@H](O)CN2C(=O)[C@@H](c2cc(N3CCC(CN4CC[C@@H](Oc5cc(N6C7CCC6CN(c6cc(-c8ccccc8O)nnc6N)C7)ccn5)[C@H](F)C4)CC3)no2)C(C)C)cc1 [Compound 59, (2S,4R)-1-[(2R)-2-[3-(4-{[(3R,4R)-4-[(4-{3-[3-amino-6-(2-hydroxyphenyl)pyridazin-4-yl]-3,8-diazabicyclo[3.2.1]octan-8-yl}pyridin-2-yl)oxy]-3-fluoropiperidin-1-yl]methyl}piperidin-1-yl)-1,2-oxazol-5-yl]-3-methylbutanoyl]-4-hydroxy-N-[(1S)-1-[4-(4-methyl-1,3-thiazol-5-yl)phenyl]ethyl]pyrrolidine-2-carboxamide] | 10 to 30 | > 75
8 | Cc1ncsc1-c1ccc([C@H](C)NC(=O)[C@@H]2C[C@@H](O)CN2C(=O)[C@H](c2cc(N3CCN(C(=O)[C@H]4C[C@H](Oc5cc(N6C7CCC6CN(c6cc(-c8ccccc8O)nnc6N)C7)ccn5)C4)CC3)no2)C(C)C)cc1 [Compound 118, (2S,4R)-4-hydroxy-N-[(1S)-1-[4-(4-methyl-1,3-thiazol-5-yl)phenyl]ethyl]-1-[(2S)-3-methyl-2-(3-{4-[(1r,3r)-3-[(4-{3-[3-amino-6-(2-hydroxyphenyl)pyridazin-4-yl]-3,8-diazabicyclo[3.2.1]octan-8-yl}pyridin-2-yl)oxy]cyclobutanecarbonyl]piperazin-1-yl}-1,2-oxazol-5-yl)butanoyl]pyrrolidine-2-carboxamide] | < 2.5 | > 75
9 | CC(C)[C@@H](C(=O)N1C[C@H](O)C[C@H]1C(=O)N[C@@H](C)c1ccc(C#N)cc1)c1cc(N2CCC(C(=O)N3CCC(O[C@H]4C[C@H](Oc5cc(N6C7CCC6CN(c6cc(-c8ccccc8O)nnc6N)C7)ccn5)C4)CC3)CC2)no1 [Compound 138, (2S,4R)-N-[(1S)-1-(4-cyanophenyl)ethyl]-4-hydroxy-1-[(2R)-3-methyl-2-[3-(4-{4-[(1r,3r)-3-[(4-{3-[3-amino-6-(2-hydroxyphenyl)pyridazin-4-yl]-3,8-diazabicyclo[3.2.1]octan-8-yl}pyridin-2-yl)oxy]cyclobutoxy]piperidine-1-carbonyl}piperidin-1-yl)-1,2-oxazol-5-yl]butanoyl]pyrrolidine-2-carboxamide] | < 2.5 | > 75
10 | CC(C)[C@@H](C(=O)N1C[C@H](O)C[C@H]1C(=O)N[C@@H](C)c1ccc(C#N)cc1)c1cc(N2CCC(OCCN3CCC(Oc4cc(N5C6CCC5CN(c5cc(-c7ccccc7O)nnc5N)C6)ccn4)CC3)CC2)no1 [Compound 151, (2S,4R)-1-[(2R)-2-{3-[4-(2-{4-[(4-{3-[3-amino-6-(2-hydroxyphenyl)pyridazin-4-yl]-3,8-diazabicyclo[3.2.1]octan-8-yl}pyridin-2-yl)oxy]piperidin-1-yl}ethoxy)piperidin-1-yl]-1,2-oxazol-5-yl}-3-methylbutanoyl]-N-[(1S)-1-(4-cyanophenyl)ethyl]-4-hydroxypyrrolidine-2-carboxamide] | 2.5 to 10 | > 75
11 | Cc1ncsc1-c1ccc([C@H](C)NC(=O)[C@H]2C[C@@H](O)CN2C(=O)[C@@H](c2cc(N3CCC(CN4CCC(O[C@H]5C[C@H](OC(=O)N6CCN(c7cc(-c8ccccc8O)nnc7N)CC6)C5)CC4)CC3)no2)C(C)C)cc1 [Compound 45, (1rs,3rs)-3-({1-[(1-{5-[(2R)-1-[(2S,4R)-4-hydroxy-2-{[(1S)-1-[4-(4-methyl-1,3-thiazol-5-yl)phenyl]ethyl]carbamoyl}pyrrolidin-1-yl]-3-methyl-1-oxobutan-2-yl]-1,2-oxazol-3-yl}piperidin-4-yl)methyl]piperidin-4-yl}oxy)cyclobutyl 4-[3-amino-6-(2-hydroxyphenyl)pyridazin-4-yl]piperazine-1-carboxylate] | < 2.5 | > 75
12 | Cc1ncsc1-c1ccc([C@H](C)NC(=O)[C@@H]2C[C@@H](O)CN2C(=O)[C@H](c2cc(O[C@H]3C[C@H](CN4CCC(O[C@H]5C[C@H](N6CCOC7(CCN(c8cc(-c9ccccc9O)nnc8N)CC7)C6)C5)CC4)C3)no2)C(C)C)cc1 [Compound 67, (2S,4R)-4-hydroxy-N-[(1S)-1-[4-(4-methyl-1,3-thiazol-5-yl)phenyl]ethyl]-1-[(2S)-3-methyl-2-{3-[(1r,3r)-3-({4-[(1r,3r)-3-{9-[3-amino-6-(2-hydroxyphenyl)pyridazin-4-yl]-1-oxa-4,9-diazaspiro[5.5]undecan-4-yl}cyclobutoxy]piperidin-1-yl}methyl)cyclobutoxy]-1,2-oxazol-5-yl}butanoyl]pyrrolidine-2-carboxamide] | 10 to 30 | > 75
13 | Cc1ncsc1-c1ccc([C@H](C)NC(=O)[C@@H]2C[C@@H](O)CN2C(=O)[C@@H](c2cc(N3CCC(CN4CCC(N5CCC6(CC5)CC(Oc5cc(N7C8CCC7CN(c7cc(-c9ccccc9O)nnc7N)C8)ccn5)C6)CC4)CC3)no2)C(C)C)cc1 [Compound 43, (2S,4R)-1-[(2R)-2-(3-{4-[(4-{2-[(4-{3-[3-amino-6-(2-hydroxyphenyl)pyridazin-4-yl]-3,8-diazabicyclo[3.2.1]octan-8-yl}pyridin-2-yl)oxy]-7-azaspiro[3.5]nonan-7-yl}piperidin-1-yl)methyl]piperidin-1-yl}-1,2-oxazol-5-yl)-3-methylbutanoyl]-4-hydroxy-N-[(1S)-1-[4-(4-methyl-1,3-thiazol-5-yl)phenyl]ethyl]pyrrolidine-2-carboxamide] | < 2.5 | > 75
